Earlier results as cited in patent publication US8415273B2, “Broadleaf perennial weed control agent for grass, and method for controlling broadleaf perennial weeds in grass” (Nippon Soda Co., Ltd., priority 2007, dated 2013).

Tests used:
[1] = test system: broadleaf annual weeds such as chickweed and gramineous weeds such as crabgrass
[2] = test system: turf grasses such as Zoysia japonica and Zoysia tenuifolia; details: soil-based herbicide

## NC(=O)c1nc(-c2ccccc2)n(-c2ccc(Cl)c(COCC(F)(F)C(F)(F)F)c2)n1 [flupoxam, 1-[4-chloro-3-[(2,2,3,3,3-pentafluoropropoxy)methyl]phenyl]-5-phenyl-1H-1,2,4-triazole-3-carboxamide]
[1]
  Control action on annual weeds in grass: powerful control action
[2]
  Detrimental effects on turf grasses: no detrimental effects
